Residues, ends and D or L forms follow the SMILES beside them. *: point of attachment. Cbz = O=C(OCc1ccccc1)*; CH2F = FC*
Columns and labels:
RGC-5 cells [1] = test: Nuclear condensation changes of apoptosis (Hoechst 33258); type: cell-based, rat; details: twenty-four hour incubation, Hoechst 33258 10 μg/ml for thirty minutes
RGC-5 cells [2] = test: Morphological differentiation and neurite count of RGC-5 cells; details: for morphological evidence of differentiation: apoptosis inducer; for rounding of the cell soma: specific kinase inhibitors on RGC-5 cells
Experimental: Cell culture: RGC-5 cells were cultured in Dulbecco's modification of Eagle's medium (DMEM; Mediatech, Inc.; Herndon, Calif.) containing 1 mg/L glucose with L-glutamine, supplemented with 10% FBS, 100 U/ml penicillin and 100 μg/ml streptomycin. Cells were incubated at 37° C. in humidified 5% CO2.
Pharmacological agents were used to induce or to inhibit various signaling pathways within RGC-5 cells. Cells were replated on 12 mm round cover glass in 24 well plates 24 hours prior to pharmacological treatment. Drugs were added for varying lengths of time and then processed for immunocytochemistry.
Cell morphology: Photomicrographs were taken at 400× total magnification with Nomarski optics, digitized as above, and stored as JPEG images. The pictures were then batch analyzed off-line to assess the development of neurites. A total of fifty cells from each condition were analyzed. The fifty cells assessed for neurite outgrowth in each condition were selected to include all cells in each photomicrograph for which the neurite tree was visible, and continuing with a new photomicrograph until fifty cells were analyzed. Projections from the cell were classified as neurites if they were equal or greater in length than the cell soma. Only branches arising from the soma were counted. The neurite counts were expressed as mean±S.E.M.

Rho-Kinase = details: cited from earlier work
PKA = details: read-out: Ki protein kinase A; cited from earlier work
Thy-1 [3] = test: Immunoblot analysis of Thy-1 in RGC-5 cells; details: 316 nM for three days
Experimental: (§4) After transfer, the membrane was blocked with 5% non-fat milk in TBS (pH 8.0) for 30-60 minutes, and then probed with primary antibodies to RGC marker proteins in blocking buffer. Antibodies used included purified rabbit polyclonal anti-microtubule-associated protein 2 (1:2000; Chemicon; Temecula, Calif.), polyclonal rabbit anti-Thy-1 (1:100; Santa Cruz Biotechnology), and polyclonal rabbit anti-actin (1:1000; Sigma). Blots were rinsed 3 times with TBS containing 0.05% Tween-20 (Fisher Scientific), then washed 5 times for 10 minutes each at room temperature on an orbital shaker. Secondary antibodies used were purified HRP-conjugated goat anti-rabbit IgG and purified HRP-conjugated goat anti-mouse IgG (1:5000; Jackson Immunoresearch Laboratories; West Grove, Pa.), and were incubated for 1 hour at room temperature, followed by 3 rinses and five 10 minute washes with TBS containing Tween-20 at room temperature on an orbital shaker. […] The blots were then exposed to Kodak BioMax XAR film (Eastman Kodak Company; Rochester, N.Y.) and developed. The films were scanned at 1600 dpi and band density was determined by comparing total intensity in an area containing the band of interest to the intensity of an equal size area of background using NIH ImageJ software. Band density readings are presented with respect to the density of the band from the control, untreated cell condition.

[4] = system: microtubule-associated protein 2 (MAP-2); test: Immunoblot analysis of MAP-2 in RGC-5 cells; details: 316 nM for three days
Experimental: as §4

[5] = system: focal adhesion kinase (FAK) S722; test: Kinetworks KPSS 2.1 phosphorylation screen, FAK S722; type: cell-based, rat; details: 1 μM for 5 minutes
Experimental: (§1) Cells were washed with ice-cold PBS, scraped, and centrifuged at 3,200 g for five minutes. The pellets were resuspended in lysis buffer (Kinexus Bioinformatics; Vancouver, BC, Canada) supplemented with 5 mM pepstatin A (Roche; Indianapolis, Ind.), and Complete mini protease inhibitor cocktail (Roche). The suspensions were sonicated on ice for two 15-second bursts, followed by centrifugation at 100,000 g for 30 minutes at 4° C. […] These were then transferred to nitrocellulose membranes. Using a twenty-lane multiblotter (BioRad; Hercules, Calif.), the membranes were incubated with different mixtures of up to three antibodies per lane that react with a distinct subset of at least thirty-seven known phosphorylated sites of cell signaling proteins of distinct molecular masses. After further incubation with a mixture of relevant HRP conjugated secondary antibodies (Santa Cruz Biotechnology), the blots were developed using ECL Plus reagent (Amersham Pharmacia; Piscataway, N.J.) and signals quantified using Quantity One software (BioRad). Detailed information and protocols of the Kinetworks™ analysis can be found at the Kinexus Bioinformatics Corporations website.

MEK1 S298 = test: Kinetworks KPSS 2.1 phosphorylation screen, MEK1 S298; type: cell-based, rat; details: 1 μM for 5 minutes
Experimental: as §1

RGC-5 cells [6] = test: Cell number by MTT assay; type: cell-based, rat
Experimental: Cell number: Cells were plated in 96 well plates and 3-(4,5-dimethylthiazol-2-yl)-2,5-diphenyltetrazolium bromide (MTT) added immediately to a final concentration of 500 μg/ml. Plates were incubated for 5 hours at 37° C. The media was then replaced with 200 μl of DMSO, which was pipetted up and down to dissolve the formazan crystals, and the plate incubated at 37° C. for 5 minutes. Absorbance was measured at 550 nm on a THERMOmax™ microplate reader (Molecular Devices; Sunnyvale, Calif.). All readings were normalized to a standard curve derived from known numbers of cells.

RGC-5 cells [7] = test: Whole-cell voltage-clamp recording of RGC-5 cells; type: cell-based, rat; details: for conductance of outward currents at +90 mV: after leak subtraction
Experimental: No series resistance compensation was used. Currents were low-pass filtered at 1-5 kHz with a four-pole Bessel filter, and digitized at a rate no less than twice the filter frequency. […] Analysis and curve fitting was also performed using AxoGraph.
Voltage-gated currents were studied by applying 10 ms voltage steps from −100 to +90 mV in 10 mV increments, from a holding potential of −60 mV. This protocol was run 2-6 times on each cell and the currents evoked at each potential were averaged. Passive leak and capacitive currents were removed by scaling the average current evoked at −70 mV, and subtracting the result from the average current obtained at each voltage. Current amplitudes were measured at steady-state (i.e., near the end of the voltage step), and the slope conductance was computed as the difference between successive amplitudes, divided by the 10 mV step increment.

c-Kit Y703 = test: Kinetworks KPSS 2.1 phosphorylation screen, c-Kit Y703; type: cell-based, rat; details: 1 μM for 5 minutes
Experimental: (§2) Analysis of kinasephosphorylation targets: Total cell lysates were prepared as described in Zhang H, et al., J Biol Chem 276:6905-6908 (2001). Cells were washed with ice-cold PBS, scraped, and centrifuged at 3,200 g for five minutes. The pellets were resuspended in lysis buffer (Kinexus Bioinformatics; Vancouver, BC, Canada) supplemented with 5 mM pepstatin A (Roche; Indianapolis, Ind.), and Complete mini protease inhibitor cocktail (Roche). The suspensions were sonicated on ice for two 15-second bursts, followed by centrifugation at 100,000 g for 30 minutes at 4° C. […] Bradford M M, Anal Biochem 72:248-254 (1976). These were then transferred to nitrocellulose membranes. Using a twenty-lane multiblotter (BioRad; Hercules, Calif.), the membranes were incubated with different mixtures of up to three antibodies per lane that react with a distinct subset of at least thirty-seven known phosphorylated sites of cell signaling proteins of distinct molecular masses. After further incubation with a mixture of relevant HRP conjugated secondary antibodies (Santa Cruz Biotechnology), the blots were developed using ECL Plus reagent (Amersham Pharmacia; Piscataway, N.J.) and signals quantified using Quantity One software (BioRad). Detailed information and protocols of the Kinetworks™ analysis can be found at the Kinexus Bioinformatics Corporations website.

PKR T451 = test: Kinetworks KPSS 2.1 phosphorylation screen, PKR T451; type: cell-based, rat; details: 1 μM for 5 minutes
Experimental: as §2

Thy-1 [8] = test: Immunocytochemistry for Thy-1 in RGC-5 cells; type: cell-based, rat; details: differentiated vs undifferentiated cells, twenty-four hours
Experimental: (§3) Immunocytochemistry: Differentiated RGC-5 cells plated on coverslips were fixed with 4% paraformaldehyde (Fisher) in PBS, pH 7.2 for 20 minutes at room temperature, rapidly rinsed with Tris-buffered saline (TBS; 100 mM Tris, pH 7.6, 0.9% NaCl) 3 times for a few seconds each and 2 times for 5 minutes each, and blocked with 5% normal goat serum (BioWhittaker) in TBS for 30 minutes at room temperature. The NMDA-R1 receptor was detected by incubating with purified mouse monoclonal anti-NMDA-R1 antibody (BD Biosciences; San Jose, Calif.; clone 54.1) at 2.5 μg/ml overnight at room temperature, followed by Alexa Fluor™ 594 goat anti-mouse IgG at 10 μg/ml in blocking buffer at room temperature for 90 minutes. Alexa Fluor™ 594 fluorescence was detected with a Texas Red filter set (excitation 560±20 nm, dichroic 595 nm long-pass, emission 630±30 nm). Thy-1 was detected after fixing and blocking by incubating with rabbit anti-Thy-1 polyclonal IgG (Santa Cruz Biotechnology; Santa Cruz, Calif.) at 20 μg/ml overnight at 4° C., followed by Alexa Fluor 488 goat anti-rabbit IgG at 4 μg/ml at room temperature for 60 minutes. Alexa Fluor 488 fluorescence was detected with a FITC filter set (excitation 470±20 nm, dichroic 505 nm long-pass, emission 540±20 nm) filter set. […]

NMDA-R1 = test: Immunocytochemistry for NMDA-R1 in RGC-5 cells; type: cell-based, rat; details: differentiated vs undifferentiated cells, twenty-four hours
Experimental: as §3

CDK1 T14/Y15 = test: Kinetworks KPSS 2.1 phosphorylation screen, CDK1 T14/Y15; type: cell-based, rat; details: 1 μM for 5 minutes
Experimental: as §2

ERK1 T202/Y204 = test: Kinetworks KPSS 2.1 phosphorylation screen, ERK1 T202/Y204; type: cell-based, rat; details: 1 μM for 5 minutes
Experimental: as §2

[9] = 1 hr [24 hr], cells with large conductance

C[C@H](CCC(=O)O)C[C@H](C)C[C@H](C)C(=O)/C=C(\O)[C@H](C)C[C@H](C)C/C=C/[C@@H](C)[C@@H](O)[C@@H](C)[C@@H](O)C[C@@H]1CC[C@@](C)([C@H]2CC[C@@](C)([C@@H](C)O)O2)O1 [ionomycin]
nuclear condensation (Hoechst 33258) (RGC-5 cells [1]): induced nuclear condensation
morphological evidence of differentiation (RGC-5 cells [2]; 20 μM): None resulted in morphological evidence of differentiation

COC(=O)C[C@H](NC(=O)[C@H](C)NC(=O)[C@@H](NC(=O)OCc1ccccc1)C(C)C)C(=O)CF [ZVAD-fmk] (Cbz-Val-Ala-Asp(OMe)-CH2F)
effect of pretreatment on differentiation with SS (RGC-5 cells [2]): did not inhibit differentiation with SS
differentiation of undifferentiated cells by the agent alone (RGC-5 cells [2]; without staurosporine): did not differentiate

Cc1cncc2cccc(S(=O)(=O)N3CCCNC[C@@H]3C)c12 [H-1152]
differentiation-inducing activity in RGC-5 cells (RGC-5 cells [2]): weak differentiation inducers
neurites expressed (RGC-5 cells [2]; RGC-5 cells, 1 μM): 1.06±0.15 neurites
rounding of the cell soma (RGC-5 cells [2]): did not produce rounding of the cell soma
Ki (Rho-Kinase): 1.6 nM

O=S(=O)(NCCNC/C=C/c1ccc(Br)cc1)c1cccc2cnccc12 [H-89]
Ki (PKA): 50 nM
differentiation-inducing activity in RGC-5 cells (RGC-5 cells [2]): weak differentiation inducers
neurites expressed (RGC-5 cells [2]; RGC-5 cells, 56.2 μM): 1.80±0.16 neurites
rounding of the cell soma (RGC-5 cells [2]): did not produce rounding of the cell soma

C/C=C(/C)C(=O)O[C@H]1C(C)=C2[C@H]([C@@H]1OC(=O)CCCCCCC)[C@@](C)(OC(C)=O)C[C@H](OC(=O)CCC)[C@@]1(O)[C@H]2OC(=O)[C@@]1(C)O [thapsigargin, Thapsigargin]
cell shape (RGC-5 cells [2]; 10 μM): did cause cells to become more spindle-shaped
morphological evidence of differentiation (RGC-5 cells [2]; 10 μM): None resulted in morphological evidence of differentiation

CN[C@@H]1C[C@H]2O[C@@](C)([C@@H]1OC)n1c3ccccc3c3c4c(c5c6ccccc6n2c5c31)C(=O)NC4 [staurosporine]
Thy-1 level (Western blot) (Thy-1 [3]): increased levels
nuclear condensation (Hoechst 33258) (RGC-5 cells [1]): the same as controls, with finely granular nuclei that were not compacted
MAP-2 level (Western blot) [4]: increased levels
differentiation-inducing activity in RGC-5 cells (RGC-5 cells [2]): strong differentiation inducer
neurite branching (RGC-5 cells [2]; 316 nM): minimally branched neurites
differentiation after short exposure (RGC-5 cells [2]; 1 μM for sixty seconds, then fresh media until twenty-four hours from treatment): definite morphological signs of differentiation
concentrations frequently toxic (necrotic cell body, blebbing and disruption of the neurite tree) (RGC-5 cells [2]; RGC-5 cells): higher than 1.78 μM
neurites per cell (RGC-5 cells [2]; RGC-5 cells, 1 μM, average±SEM from 50 cells): 2.94±0.11 neurites per cell
average and total process length (RGC-5 cells [2]; high (3.16 μM) concentration): average and total process length decreased somewhat
neurite branching (RGC-5 cells [2]; high (3.16 μM) concentration): neurite branching was greater
average and total neurite outgrowth (RGC-5 cells [2]; moderate (1 μM) concentration): promoted longer average and total neurite outgrowth
increase in phosphorylation of S722 of FAK vs sham-treated cells [5]: 90%
decrease in phosphorylation of MEK1 S298 vs control (MEK1 S298): 100%
cell number (MTT) (RGC-5 cells [6]; 1 hour after culture): 7133±266 cells
cell number (MTT) (RGC-5 cells [6]; twenty-four hours): 10,094±1023 cells
conductance of outward currents at +90 mV (RGC-5 cells [7]; 1 hr [24 hr], untreated 3.1±0.5): 14±5 nS
apparent half-activation voltage (Boltzmann fit) (RGC-5 cells [7]; [9]): +48 mV
maximal conductance (Boltzmann fit) (RGC-5 cells [7]; [9]): 26 nS
apparent capacitance (RGC-5 cells [7]; 1 hr [24 hr], untreated 28±2): 31±5 pF
resting potential (RGC-5 cells [7]; 1 hr [24 hr], untreated −34±0.5): −27±9 mV
resting potential (RGC-5 cells [7]; 1 hr [48 hr]): −9±6 mV
conductance of outward currents at +90 mV (RGC-5 cells [7]; 1 hr [48 hr]): 7±3 nS
input resistance (RGC-5 cells [7]; 1 hr [48 hr], n=4): 322±89 MΩ
apparent capacitance (RGC-5 cells [7]; 1 hr [48 hr], p<0.05): 44±3 pF
apparent capacitance (RGC-5 cells [7]; 22 hr [2 hr]): 38±3
resting potential (RGC-5 cells [7]; 22 hr [2 hr]): −11±3
conductance of outward currents at +90 mV (RGC-5 cells [7]; 22 hr [2 hr]): 5±3 nS
increase in phosphorylation of c-Kit Y703 vs control (c-Kit Y703): 43%
decrease in phosphorylation of PKR T451 vs control (PKR T451): 100%
Thy-1 labeling (Thy-1 [8]): visibly more intense staining
NMDA-R1 labeling (NMDA-R1): visibly more intense staining
increase in phosphorylation of CDK1 T14/Y15 vs control (CDK1 T14/Y15): 64%
phosphorylation of ERK1 T202/Y204 vs control (ERK1 T202/Y204): not present in control

C=C(C)[C@H]1Cc2c(ccc3c2O[C@@H]2COc4cc(OC)c(OC)cc4[C@@H]2C3=O)O1 [rotenone]
morphological evidence of differentiation (RGC-5 cells [2]; 10 μM): None resulted in morphological evidence of differentiation

Source: US7303915B2, “In vitro-differentiated retinal ganglion cells and method for producing same” (Wisconsin Alumni Research Foundation, priority 2005, dated 2007)
